In patent US8466151B2, “Compounds and method for treatment of cancer” (Critical Outcome Technologies, Inc., priority 2007, dated 2013):
Read-outs that look alike come from different tables or passages of the source.

How the values were obtained:
[1] = test system: human SHP-77 SCLC cells as xenograft; test: Inhibition of tumor growth, SHP-77 xenograft in NCr-nu mice; format: in vivo; details: for maximum number of tumours versus control, saline-treated mice / mean tumour size versus saline-treated mice: SHP-77 xenografts; for maximum number of tumours versus control, saline-treated mice: FIG. 6, not subject to analysis of significance; for mean tumour size versus saline-treated mice: i.p. treatment up to 38 days, p<0.05; for mean tumor volume: SHP-77 small cell lung cancer xenografts, saline control 260±33 mm^3
Method: SHP-77 SCLC cells were grown in culture and injected into each flank of NCr-nu mice (T cell-deficient immunocompromised mice, suitable for growth of this cell line) (2×10^6 cells per injection, in Matrigel™). One day after injection of tumour cells, groups of 5 mice each were injected with 3 mg/kg of COTI-2MO5 or COTI-4MO5 (i.p.), once every 2 days, up to 38 days. Tumour size was estimated at 5, 10, 17, 24, and 38 days, by external caliper measurement. Animals were humanely euthanized after the 38 day tumour measurement.
For comparison, mice (5 mice per group, injected as described above with SHP-77 human tumor cells as described above) and harbouring SHP-77 xenografts were treated with Taxol® (12.5 mg/kg, i.p. in 0.5 ml isotonic saline) every 2 days (according to the report of J. Riondel et al., Anticancer Res. 8:387-90, 1988) or with cisplatin (3.0 mg/kg of DDP i.p., once per week for four weeks, in isotonic saline, according to the report of P. A. Andrews et al., Cancer Commun. 2:93-100, 1990). Tumour size was estimated at 5, 10, 17, 24, and 38 days, by external caliper measurement. Animals were humanely euthanized after the 38 day tumour measurement.

[2] = test system: human non-small cell lung cancer cell lines (A549, H226, A460); test: In vitro inhibition of NSCLC cell lines, summary statements; format: cell-based; details: across NSCLC cell lines, read-out: IC50 values, inhibits growth and/or kills NSCLC cells
Method: (§1) In vitro inhibition of non-small cell lung cancer (NSCLC) cell lines by the compound of Formula 1B (COTI-4) was evaluated. Standard numbers of human tumor cells (established cell lines available from the American Type Tissue culture collection) were plated in plastic tissue culture plates and grown under standard conditions for each cell line, in carbon dioxide/oxygen atmosphere in plastic tissue culture plates, in the presence of COTI-4 (0-1 mM) or Gleevec® ([…]) at 35° C. for 3 days. Control cultures were treated with vehicle minus compound or Gleevec®. Cells were counted after 3 days in culture and at a cell density of no more than 80%.
as §1, with “Formula 1A is” for “Formula 1B (COTI-4) was”, “of compounds of formula 1A” for “of COTI-4”, “cultures are” for “cultures were”, “Cells are” for “Cells were”

[3] = test system: human small cell lung cancer cell lines (DMS-114, DMS-153, SHP-77); test: In vitro inhibition of SCLC cell lines, summary statements; format: cell-based
From the text: (§2) Cells were counted after 3 days in culture and at a cell density of no more than 80%.
(§3) In vitro inhibition of small cell lung cancer (SCLC) cell lines by the compound of formula 1A was done with standard human tumor cells (established cell lines available from the American Type Tissue culture collection). […] Cells were counted after 3 days in culture and at a cell density of no more than 80%.

[4] = test system: A460 large cell carcinoma-derived cells (NSCLC; also printed H460); test: In vitro tumor cell growth inhibition, cell count after 3 days; format: cell-based; details: Homo sapiens
Method: (§4) In vitro inhibition of non-small cell lung cancer (NSCLC) cell lines by the compound of Formula 1B (COTI-4) was evaluated. […] Cells were counted after 3 days in culture and at a cell density of no more than 80%.
(§5) In vitro inhibition of non-small cell lung cancer (NSCLC) cell lines by the compound of Formula 1A is evaluated. […] Cells are counted after 3 days in culture and at a cell density of no more than 80%.
(§6) Briefly, cells were plated in plastic tissue culture plates and grown under standard conditions for each cell line, in carbon dioxide/oxygen atmosphere in plastic tissue culture plates, in the presence of COTI-4 or COTI-4A compounds at 35° C. for 3 days. Control cultures were treated with vehicle minus compound. Cells were counted after 3 days in culture and at a cell density of no more than 80%. The following cell lines, obtained from the National Cancer Institute, were tested: human SCLC cell lines DMS 153, DMS114, SHP77; human NSCLC cell lines H226, A460, A549; human breast cancer cell lines T47D, MCF7; human colon cancer cell line HT29; and, human Leukemia cell lines K562, HL60.

[5] = test system: H226 squamous cell carcinoma-derived cells (NSCLC); test: as above; format: cell-based; details: Homo sapiens
Method: as §4, §5, §6

[6] = test system: A549 adenocarcinoma-derived cells (NSCLC); test: as above; format: cell-based; details: Homo sapiens
Method: as §4, §5, §6

[7] = test system: DMS-114 human SCLC cell line; test: as above; format: cell-based
Method: as §2, §3, §6

[8] = test system: DMS-153 human SCLC cell line; test: as above; format: cell-based; details: for IC50: DMS-153 SCLC cells, 3 days, 35° C.
Method: as §2, §3, §6

[9] = test system: SHP-77 human SCLC cell line; test: as above; format: cell-based; details: for IC50: Homo sapiens
Method: as §2, §3, §6

[10] = test system: HL60 human Leukemia cell line; test: In vitro IC50 against cancer cell lines; format: cell-based; details: HL-60, 72 h, HL60 leukemia cells, 3 days, 35° C.
Method: (§7) Briefly, cells were plated in plastic tissue culture plates and grown under standard conditions for each cell line, in carbon dioxide/oxygen atmosphere in plastic tissue culture plates, in the presence of COTI-4 or COTI-4A compounds at 35° C. for 3 days. Control cultures were treated with vehicle minus compound. Cells were counted after 3 days in culture and at a cell density of no more than 80%.

[11] = test system: HT29 human colon cancer cell line; test: In vitro IC50 against cancer cell lines; format: cell-based; details: HT-29, 72 h, HT29 colorectal cancer cells, 3 days, 35° C.
Method: as §7

[12] = test system: K562 human Leukemia cell line; test: In vitro IC50 against cancer cell lines; format: cell-based; details: 72 h, K562 leukemia cells, 3 days, 35° C.
Method: as §7

[13] = test system: MCF7 human breast cancer cell line; test: In vitro IC50 against cancer cell lines; format: cell-based; details: 72 h, MCF7 breast cancer cells, 3 days, 35° C.
Method: as §7

[14] = test system: T47D human breast cancer cell line; test: In vitro IC50 against cancer cell lines; format: cell-based; details: 72 h, T47D breast cancer cells, 3 days, 35° C.
Method: as §7

[15] = Escalating dose acute toxicity study in mice; format: in vivo; details: mice, 4, 8, 16 mg/kg, alternate day IP injections for 28 days
Method: An escalating dose acute toxicity study was conducted with COTI-2, COTI-4 (Formula 1B) and COTI-219. Standard lab mice were divided into four treatment groups (control, 4, 8, 16 mg/kg) with four animals per group. It should be noted that the highest dose was approximately 10 times the estimated effective dose. Mice were given alternate day IP injections for 28 days.

[16] = NCI-H460, 72 h, A460 NSCLC cells, 3 days, 35° C., read-out: IC50
[17] = NCI-H460, actual in-vitro data, logarithm of IC50, negative, read-out: H460 (Log IC50) (converted)
[18] = NCI-H226, 72 h, H226 NSCLC cells, 3 days, 35° C., read-out: IC50
[19] = NCI-H226, actual in-vitro data, logarithm of IC50, negative, read-out: H226 (Log IC50) (converted)
[20] = 72 h, A549 NSCLC cells, 3 days, 35° C., read-out: IC50
[21] = A549, actual in-vitro data, logarithm of IC50, negative, read-out: A549 (Log IC50) (converted)
[22] = Homo sapiens, DMS-114, actual in-vitro data, logarithm of IC50, negative, read-out: DMS114 (Log IC50) (converted)
[23] = SHP77, 72 h, SHP-77 SCLC cells, 3 days, 35° C., read-out: IC50
[24] = SHP77, actual in-vitro data, logarithm of IC50, negative, read-out: SHP-77 (Log IC50) (converted)

Compound | maximum number of tumours versus control, saline-treated mice [1] | mean tumour size versus saline-treated mice [1] | IC50 [2] | IC50 [4, 16] | IC50 [4, 17] | IC50 [5, 18] | IC50 [5, 19] | IC50 [6, 20] | IC50 [6, 21] | IC50 [7, 22] | IC50 [9, 23] | IC50 [9, 24] | mean tumor volume [1] | other results
S=C(N/N=C1/CCCc2cccnc21)N1CCN(c2ccccn2)CC1 [COTI-2] | lower than that in control | significantly lower | – | – | – | – | – | – | – | – | – | – | – | –
CN1CCN(C(=S)NN=C2c3ncccc3-c3cccnc32)CC1 [COTI-219] | lower than that in control | – | – | – | – | – | – | – | – | – | – | – | – | –
CN1CCN(C(=S)NN=C(c2ccccc2)c2ccnnc2)CC1 [Formula 1A, 4-methyl-N′-[phenyl(pyridazin-4-yl)methylidene]piperazine-1-carbothiohydrazide] | – | – | ≥ 1500 nM | 100000 nM | 72400 nM | 90000 nM | 63500 nM | 1500 nM | 1570 nM | 650 nM | 10000 nM | 10700 nM | – | IC50 ([3]; Homo sapiens, across SCLC cell lines, depending on cell line tested, read-out: IC50 values, inhibits growth and/or kills SCLC cells): ≥ 650 nM; melting point: 141 to 143 °C; times more effective in vitro than Gleevec® ([7]; DMS-114): about 100; IC50 ([7]; DMS-114 SCLC cells, 3 days, 35° C., listed as COTI-4A, read-out: IC50): 650 nM; IC50 ([7]; Homo sapiens, DMS-114, 72 h, DMS-114 SCLC cells, 3 days, 35° C., read-out: IC50): < 1000 nM; times more effective in vitro than Gleevec® ([8]; DMS-153): about 100; effectiveness relative to Gleevec® ([9]; SHP-77): about twice as effective
CN1CCN(C(=S)NN=C(c2ccccn2)c2ccccn2)CC1 [Formula 1B, N′-(dipyridin-2-ylmethylidene)-4-methylpiperazine-1-carbothiohydrazide] | lower than that in control | significantly lower | ≥ 2500 nM | 5100 nM | 5110 nM | 2500 nM | 2500 nM | 6800 nM | 6810 nM | 30 nM | 173 nM | 173 nM | 6.2 mm^3 | IC50 [10]: 318 nM; IC50 [11]: 83 nM; IC50 [12]: 95 nM; IC50 [13]: 291 nM; IC50 [14]: 224 nM; times more effective than Gleevec® against these cell lines in vitro ([3]; 3 human small cell lung cancer cell lines): over 100; acute toxicity / adverse events [15]: safe and non-toxic at all dosage levels; IC50 ([7]; DMS-114 SCLC cells, 3 days, 35° C., listed as COTI-4 (1B), read-out: IC50): 30 nM; IC50 ([7]; DMS-114 SCLC cells, 3 days, 35° C., listed as COTI-4M05, read-out: IC50): 30 nM; IC50 ([8]; listed as COTI-4 (1B)): 130 nM; IC50 ([8]; listed as COTI-4M05): 130 nM
CC(=O)O[C@H]1C(=O)[C@@]2(C)[C@H]([C@H](OC(=O)c3ccccc3)[C@]3(O)C[C@H](OC(=O)[C@H](O)[C@@H](NC(=O)c4ccccc4)c4ccccc4)C(C)=C1C3(C)C)[C@]1(OC(C)=O)CO[C@@H]1C[C@@H]2O [Taxol®, paclitaxel] | lower than that in control | significantly lower | – | – | – | – | – | – | – | – | – | – | 183 mm^3 | –
N.N.[Cl][Pt][Cl] [cisplatin] | lower than that in control | significantly lower | – | – | – | – | – | – | – | – | – | – | 132±26 mm^3 | –
